Values quoted from earlier work, collected in patent publication US9963464B2, “Macrocyclic compounds” (Bayer Pharma Aktiengesellschaft, priority 2014, dated 2018).

Tested on: bronchospasms
Conditions: in vivo; cited from earlier work

C[N+]1(C)[C@@H]2C[C@@H](OC(=O)C(O)(c3cccs3)c3cccs3)C[C@H]1[C@@H]1O[C@@H]12 [tiotropium]
protection against bronchospasms (duration): more than 6 hours
